Measured values reported in patent US5607926A, “Cephalosporin antibiotics” (Microcide Pharmaceuticals, Inc., priority 1995, dated 1997).
Converted amounts (≈) assume the structure as drawn. Where two headings read alike, the source gives them in different places.

Key:
[1] = tested on: methicillinsusceptible S. aureus strain ATCC 13709; experiment: In vivo antibacterial evaluation, murine model for lethal bacteremic peritonitis; set-up: species or system S. aureus in female Swiss-Webster mice; settings: Staphylococcus aureus, ATCC13709, sc, 72 h, two equal SC doses at challenge and 2 hours later, mice, probit, read-out: ED50
Method: Groups of 5 female Swiss-Webster mice (Simonsen, Gilroy, Calif.) each are challenged by the intraperitoneal (IP) route with ten-fold increments of a bacterial inoculum. This permits calculation of the mean lethal dose (LD50) and the LD100. For preliminary evaluation of a new antibiotic, mice are challenged IP with an LD100 titer of bacteria. In two equal doses administered at the time of bacterial challenge and 2 hours later, groups of 10 mice each are treated subcutaneously with two-fold increments of the test drug and an antibiotic of known efficacy in mice and humans (i.e., positive control). Mice are observed for 72 h. Those alive at 72 h are considered long term survivors. The total drug dose in mg/kg that protects 50% of mice in a group from death is termed the mean protective dose (PD50). PD50 s are similarly determined for several pathogens. The quantitative endpoints for the new drug are then compared with those obtained with reference antibiotics.
Six ten-fold dilutions of inoculum suspended in 0.5 mL of sterilized 7% hog gastric mucin (Sigma) are injected IP in groups of 5 mice each. A control group of 5 mice receive mucin alone. Mice are observed for 72 h. Those alive at 72 h are considered long term survivors. The mean lethal dose (LD50) and 100% lethal dose (LD100) are determined by the probit test.
For antibiotic efficacy studies, mice are challenged IP with bacterial titers that will afford an LD100 for the test strain. In two equal doses administered at the time of bacterial challenge and 2 hours later, groups of 10 mice each are treated by the subcutaneous route (SC) with twofold increments of the test antibiotic; another group is treated similarly with a reference antibiotic of known efficacy in animals and man. Drug doses can range from 0.01 to 512 mg/kg. If the drug is poorly soluble, Tween 20 or propylene glycol will be employed to solubilize the drug. Animals are observed for 72 h. The 50% protective dose (PD50) is calculated in mg/kg by the probit method. The PD50 is the same as the 50% effective dose (ED50) and the 50% curative dose (CD50). Samples of blood from the hearts of all animals that die and from half the mice that survive are cultured on brain-heart infusion agar. Animals that received a protective dosage of the test drug will be alive at 72 h, although they may appear moderately ill to very ill during the observation period. […] Most of these mice will die within 6 to 48 h. Those alive at 72 h will be considered long term survivors.
(§1) data reported for challenge with methicillinsusceptible S. aureus strain

[2] = tested on: methicillinsusceptible S. aureus strain ATCC 13709; experiment: Challenge strain MIC; assay type: cell-based; settings: Staphylococcus aureus
Method: The compounds of the invention were evaluated against several β-lactamresistant bacteria strains by determining the minimum inhibitory concentration (MIC, μg/ml) of each compound with respect to each strain. The MIC, the lowest concentration of antibiotic which inhibits growth of the test organism, was determined by the agar dilution method.
To determine the MIC for bacterial isolates, the test compound was incorporated in a series of two-fold dilutions into liquified Mueller-Hinton agar. Upon solidification, a number of different bacterial strains were spot inoculated with a replicating device onto the agar surface. […] The procedures used in these studies have been standardized by the National Committee for Clinical Laboratory Standards (NCCLS), as per the NCCLS publication entitled METHODS FOR DILUTION ANTIMICROBIAL SUSCEPTIBILITY TESTS (1991), which is incorporated herein by reference.
Aliquots of antimicrobial agents were prepared in phosphate buffered saline (PBS) at pH 7.2. Tween 20 or DMSO was used as a solubilizing vehicle as needed. Standard methods of vortexing, sonicating and gentle heat were used to facilitate solubilizing the test agent. Typically, the concentration of the stock solution was 10× that of the highest drug concentration tested. A 1.28 mg/mL stock solution was used with a subsequent highest working concentration of 128 μg/mL. Serial two-fold dilutions were done through ≤0.25 μg/mL. Each drug level was tested in duplicate. Two-fold drug dilutions were done in sterile 50 mL tubes with a final drug volume of 5 mL. Upon the addition of 45 mL of molten agar, a 10-fold dilution resulted. Two, 25 mL. plates were then poured into 15×150 mm square Petri plates with grids and allowed to harden.
A control plate with a reference drug, either cefotaxime, vancomycin or imipenem, was used as the positive growth control. Stock concentrations of reference antibiotics were prepared and frozen at -80° C. Upon preparation, the control plates were sealed and stored in the refrigerator for up to 1 week prior to use; however, imipenem control plates had to be prepared just prior to use. All test plates were used within 24 hours of preparation.
Satisfactory results were obtained where the inoculum contained about 10^4 colony forming units (cfu) ±0.5 logs. Starting with pure cultures of the test isolates on agar plates, a few isolated colonies were transferred to a tube of nutrient broth and allowed to grow 4-6 hours at 35°-36° C. to reach log-phase growth. Dropwise addition of the broth culture to PBS was done to match a 0.5 McFarland turbidity standard equal to 10^8 cfu/mL. This was further diluted ten-fold in PBS to reach a working inoculum concentration of 10^7 cfu/mL. When 1 μL of the working inoculum was applied to the agar surface a concentration of about 10^4 cfu per spot was obtained.
Disposable sterile 1 μL loops were used to inoculate test plates, with each isolate in a designated grid on the agar plate. An alternate method of inoculation involved the use of a replica plater, a device with 48 steel pins allowing the simultaneous inoculation of multiple isolates. After the spots had dried, the plates were incubated at 35°-36° C. for 16-20 hours. Endpoints were assessed as the minimum inhibitory concentration (MIC) of antimicrobial agent.
as §1

E. coli ATCC 25922 = experiment: In vitro antibacterial evaluation, MIC by agar dilution, E. coli ATCC 25922; assay type: cell-based; settings: Escherichia coli, ATCC25922, read-out: MIC
Outline: (§2)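 Growth inhibition on Mueller-Hinton agar plates defined the MIC, the lowest compound level stopping visible growth after 16-20 hours at 35°-36° C. Compound was incorporated at two-fold steps from 128 μg/mL to ≤0.25 μg/mL, each tested twice, with about 10^4 cfu spotted per isolate.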

[3] = tested on: S. aureus 76 (Meth^R)(lac^+); experiment: In vitro antibacterial evaluation, MIC by agar dilution, S. aureus 76; assay type: cell-based; settings: Staphylococcus aureus, read-out: MIC
Outline: as §2

S. aureus ATCC 29213 = experiment: In vitro antibacterial evaluation, MIC by agar dilution, S. aureus ATCC 29213; assay type: cell-based; settings: Staphylococcus aureus, ATCC29213
Outline: as §2

[4] = tested on: S. aureus Col8A (Meth^S)(lac^-); experiment: In vitro antibacterial evaluation, MIC by agar dilution, S. aureus Col8A; assay type: cell-based; settings: Staphylococcus aureus
Outline: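 Agar dilution per NCCLS (1991): two-fold dilutions from 128 μg/mL down to ≤0.25 μg/mL in Mueller-Hinton agar, each level in duplicate. Spots of about 10^4 cfu of log-phase culture; 16-20 h at 35°-36° C. MIC in μg/ml is the lowest concentration inhibiting growth.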

P. aeruginosa ATCC 27853 = experiment: In vitro antibacterial evaluation, MIC by agar dilution, P. aeruginosa ATCC 27853; assay type: cell-based; settings: Pseudomonas aeruginosa, ATCC27853, read-out: MIC
Outline: as §2

E. faecium ATCC 35667 = experiment: In vitro antibacterial evaluation, MIC by agar dilution, E. faecium ATCC 35667; assay type: cell-based; settings: Enterococcus faecium, ATCC35667, read-out: MIC
Outline: as §2

S. haemolyticus (Meth^R) = experiment: In vitro antibacterial evaluation, MIC by agar dilution, S. haemolyticus; assay type: cell-based; settings: Staphylococcus haemolyticus, read-out: MIC
Outline: as §2

E. faecalis ATCC 29212 = experiment: In vitro antibacterial evaluation, MIC by agar dilution, E. faecalis ATCC 29212; assay type: cell-based; settings: Enterococcus faecalis, ATCC29212
Outline: as §2

[5] = ATCC13709, S. aureus ATCC 13709, read-out: Challenge str MIC
[6] = S. aureus ATCC 29213, read-out: MIC
[7] = E. faecalis ATCC 29212, read-out: MIC

SMILES	ED50 [1] [mg/kg]	MIC [2, 5] [µg/mL]	MIC (E. coli ATCC 25922) [µg/mL]	MIC [3] [µg/mL]	MIC (S. aureus ATCC 29213; [6]) [µg/mL]	MIC [4] [µg/mL]	MIC (P. aeruginosa ATCC 27853) [µg/mL]	MIC (E. faecium ATCC 35667) [µg/mL]	MIC (S. haemolyticus (Meth^R)) [µg/mL]	MIC (E. faecalis ATCC 29212; [7]) [µg/mL]	MIC ([2]; ATCC13709, read-out: Challenge str MIC) [µg/mL]	MIC (S. aureus ATCC 29213) [µg/mL]	MIC (E. faecalis ATCC 29212) [µg/mL]
CCC(CC)O/N=C(\C(=O)N[C@@H]1C(=O)N2C(C(=O)O)=C(Sc3ccnn3-c3ccccc3)CS[C@H]12)c1csc(N)n1 [Cmpd 104, (7R)-7-[(Z)-2-(aminothiazol-4-yl)-2-(3-pentyloxyimino)acetamido]-3-(1-N-phenylpyrazol-5-ylthio)-3-cephem-4-carboxylic acid]	> 10	0.5 (≈ 0.815 µM)	8 (≈ 13 µM)	4 (≈ 6.52 µM)	0.5 (≈ 0.815 µM)	0.5 (≈ 0.815 µM)	16 (≈ 26.1 µM)	4 (≈ 6.52 µM)	4 (≈ 6.52 µM)	2 (≈ 3.26 µM)	–	–	–
CSCC(=O)N[C@@H]1C(=O)N2C(C(=O)O)=C(Sc3ccnn3-c3ccccc3)CS[C@H]12 [Cmpd 106, (7R)-7-[(methylthioacetyl)amino]-3-(1-N-phenylpyrazol-5-ylthio)-3-cephem-4-carboxylic acid]	0.72	–	> 32	8 (≈ 17.3 µM)	0.25 (≈ 0.54 µM)	0.125 (≈ 0.27 µM)	> 32	4 (≈ 8.65 µM)	32 (≈ 69.2 µM)	4 (≈ 8.65 µM)	0.125 (≈ 0.27 µM)	–	–
O=C(CC1CC1)N[C@@H]1C(=O)N2C(C(=O)O)=C(Sc3ccnn3-c3ccccc3)CS[C@H]12 [Cmpd 107, (7R)-7-[(cyclopropylacetyl)amino]-3-(1-N-phenylpyrazol-5-ylthio)-3-cephem-4-carboxylic acid]	1.58	0.125 (≈ 0.274 µM)	> 32	16 (≈ 35 µM)	–	0.25 (≈ 0.548 µM)	> 32	8 (≈ 17.5 µM)	32 (≈ 70.1 µM)	8 (≈ 17.5 µM)	–	0.25 (≈ 0.548 µM)	–
Nc1nc(/C(=N/OCC2CC2)C(=O)N[C@@H]2C(=O)N3C(C(=O)O)=C(Sc4ccnn4-c4ccccc4)CS[C@H]23)cs1 [Cmpd 108, (7R)-7-[(Z)-2-(2-aminothiazol-4-yl)-2-(cyclopropylmethyloxyimino)acetamido]-3-(1-N-phenylpyrazol-5-ylthio)-3-cephem-4-carboxylic acid]	> 10	0.5 (≈ 0.837 µM)	4 (≈ 6.69 µM)	8 (≈ 13.4 µM)	0.5 (≈ 0.837 µM)	0.5 (≈ 0.837 µM)	16 (≈ 26.8 µM)	16 (≈ 26.8 µM)	16 (≈ 26.8 µM)	16 (≈ 26.8 µM)	–	–	–
O=C(CSc1ccncc1)N[C@@H]1C(=O)N2C(C(=O)O)=C(Sc3ccnn3-c3ccccc3)CS[C@H]12 [Cmpd 110, (7R)-7-[(4-pyridylthioacetyl)amino]-3-(1-N-phenylpyrazol-5-ylthio)-3-cephem-4-carboxylic acid]	3.45	0.25 (≈ 0.476 µM)	> 32	8 (≈ 15.2 µM)	–	0.25 (≈ 0.476 µM)	> 32	2 (≈ 3.8 µM)	> 16	2 (≈ 3.8 µM)	–	0.25 (≈ 0.476 µM)	–
O=C(O)C1=C(Sc2ccnn2-c2ccccc2)CS[C@@H]2[C@H](NC(=O)C3SCCS3)C(=O)N12 [Cmpd 115, (7R)-7-[(2-dithiolanylcarbonyl)amino]-3-(1-N-phenylpyrazol-5-ylthio)-3-cephem-4-carboxylic acid]	3.04	0.25 (≈ 0.493 µM)	> 32	8 (≈ 15.8 µM)	–	0.25 (≈ 0.493 µM)	> 32	8 (≈ 15.8 µM)	32 (≈ 63.2 µM)	4 (≈ 7.89 µM)	–	0.25 (≈ 0.493 µM)	–
Cc1nnc(SCC(=O)N[C@@H]2C(=O)N3C(C(=O)O)=C(Sc4ccnn4-c4ccccc4)CS[C@H]23)s1 [Cmpd 118]	3.38	0.06 (≈ 0.11 µM)	> 32	8 (≈ 14.6 µM)	0.25 (≈ 0.457 µM)	0.125 (≈ 0.229 µM)	> 32	4 (≈ 7.32 µM)	32 (≈ 58.5 µM)	4 (≈ 7.32 µM)	–	–	–
O=C(CSc1ccccc1)N[C@@H]1C(=O)N2C(C(=O)O)=C(Sc3ccnn3-c3ccccc3)CS[C@H]12 [Cmpd 119, (7R)-7-[(phenylthioacetyl)amino]-3-(1-N-phenylpyrazol-5-ylthio)-3-cephem-4-carboxylic acid]	> 5	0.25 (≈ 0.477 µM)	> 32	8 (≈ 15.2 µM)	0.125 (≈ 0.238 µM)	0.06 (≈ 0.114 µM)	> 32	1 (≈ 1.91 µM)	16 (≈ 30.5 µM)	1 (≈ 1.91 µM)	–	–	–
N#CCSCC(=O)N[C@@H]1C(=O)N2C(C(=O)O)=C(Sc3ccnn3-c3ccccc3)CS[C@H]12 [Cmpd 122, (7R)-7-[(cyanomethylthioacetyl)amino]-3-(1-N-phenylpyrazol-5-ylthio)-3-cephem-4-carboxylic acid]	1.13	0.125 (≈ 0.256 µM)	> 32	8 (≈ 16.4 µM)	–	0.25 (≈ 0.513 µM)	> 32	4 (≈ 8.2 µM)	16 (≈ 32.8 µM)	4 (≈ 8.2 µM)	–	0.25 (≈ 0.513 µM)	–
O=C(O)C1=C(Sc2ccnn2-c2ccccc2)CS[C@@H]2[C@H](NC(=O)/C(=N\O)c3ccccc3)C(=O)N12 [Cmpd 130, (7R)-7-[(Z)-2-(Phenyl)-2-(hydroxyimino)acetamido]-3-(1-N-(phenyl)pyrazol-5-ylthio)-3-cephem-4-carboxylic acid]	> 10	0.125 (≈ 0.24 µM)	> 32	4 (≈ 7.67 µM)	0.125 (≈ 0.24 µM)	0.25 (≈ 0.479 µM)	> 32	0.5 (≈ 0.959 µM)	4 (≈ 7.67 µM)	–	–	–	0.25 (≈ 0.479 µM)
